Test results published in article PMC4914440 (Pharmacological research, 2016).
Values joined by “and” are separate entries in the source; they are usually repeats but may differ in a detail not shown here. Equal entries are not always repeated.

Legend:
5-HT2A receptor [1] = target: T1, 5-HT2A receptor (Homo sapiens, UniProt P28223); assay: Intracellular calcium assay of Gq signaling, HEK293 cells; format: cell-based
untransfected HeLa cells = assay: cAMP-Glo assay, control cells; format: cell-based, human; conditions: efavirenz 30 μM, clozapine 30 μM, 5-HT 1 μM
5-HT2A receptor [2] = target: T1, 5-HT2A receptor; assay: Prolonged; format: cell-based; conditions: for antagonism of 100 nM 5-HT calcium response: 10 μM efavirenz
h5-HT1A = conditions: 10 μM efavirenz; cited from earlier work
[3] = cited from earlier work
[4] = cited from earlier work; remark: listed apart in the source
[5] = cited from earlier work; remark: listed apart in the source
[6] = tested on: serotonin transporter (SERT); conditions: 10 μM; cited from earlier work
[7] = cited from earlier work; remark: listed apart in the source
muscarinic receptors = conditions: 10 μM; cited from earlier work
5-HT2A receptor [8] = target: T1, 5-HT2A receptor; assay: Competition radioligand binding, concentration-response
5-HT2C receptor = target: T2, 5-HT2C receptor (Homo sapiens, UniProt P28335); assay: as above
T2 sequence (P28335 33-458): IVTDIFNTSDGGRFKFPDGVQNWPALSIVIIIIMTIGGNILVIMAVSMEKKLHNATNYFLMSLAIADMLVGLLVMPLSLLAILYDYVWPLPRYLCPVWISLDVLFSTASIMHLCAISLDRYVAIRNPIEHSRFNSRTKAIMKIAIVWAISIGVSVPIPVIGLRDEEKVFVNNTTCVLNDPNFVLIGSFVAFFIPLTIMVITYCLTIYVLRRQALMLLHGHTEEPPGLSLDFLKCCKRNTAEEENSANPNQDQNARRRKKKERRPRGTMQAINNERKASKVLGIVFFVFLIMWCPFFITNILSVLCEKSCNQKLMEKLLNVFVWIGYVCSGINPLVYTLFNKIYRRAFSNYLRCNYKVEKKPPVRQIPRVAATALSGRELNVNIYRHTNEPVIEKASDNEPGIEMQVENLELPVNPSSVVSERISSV

h5-HT7 = h5-HT7 (Homo sapiens, UniProt P34969); assay: Radioligand displacement by a fixed drug concentration, [3H]LSD; conditions: 10 μM efavirenz
Sequence of h5-HT7 (P34969 whole entry): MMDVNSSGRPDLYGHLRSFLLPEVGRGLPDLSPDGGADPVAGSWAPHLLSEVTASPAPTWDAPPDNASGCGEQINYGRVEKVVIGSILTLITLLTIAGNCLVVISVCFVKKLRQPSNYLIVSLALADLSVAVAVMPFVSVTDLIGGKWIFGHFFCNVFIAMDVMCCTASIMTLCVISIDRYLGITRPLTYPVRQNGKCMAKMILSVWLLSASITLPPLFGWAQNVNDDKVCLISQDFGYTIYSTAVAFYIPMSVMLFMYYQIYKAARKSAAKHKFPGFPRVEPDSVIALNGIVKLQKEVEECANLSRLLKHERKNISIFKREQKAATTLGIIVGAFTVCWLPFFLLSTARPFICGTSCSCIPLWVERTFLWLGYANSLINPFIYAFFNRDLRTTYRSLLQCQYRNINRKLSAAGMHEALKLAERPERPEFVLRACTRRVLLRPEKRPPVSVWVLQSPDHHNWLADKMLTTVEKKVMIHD

T1 sequence (P28223 whole entry): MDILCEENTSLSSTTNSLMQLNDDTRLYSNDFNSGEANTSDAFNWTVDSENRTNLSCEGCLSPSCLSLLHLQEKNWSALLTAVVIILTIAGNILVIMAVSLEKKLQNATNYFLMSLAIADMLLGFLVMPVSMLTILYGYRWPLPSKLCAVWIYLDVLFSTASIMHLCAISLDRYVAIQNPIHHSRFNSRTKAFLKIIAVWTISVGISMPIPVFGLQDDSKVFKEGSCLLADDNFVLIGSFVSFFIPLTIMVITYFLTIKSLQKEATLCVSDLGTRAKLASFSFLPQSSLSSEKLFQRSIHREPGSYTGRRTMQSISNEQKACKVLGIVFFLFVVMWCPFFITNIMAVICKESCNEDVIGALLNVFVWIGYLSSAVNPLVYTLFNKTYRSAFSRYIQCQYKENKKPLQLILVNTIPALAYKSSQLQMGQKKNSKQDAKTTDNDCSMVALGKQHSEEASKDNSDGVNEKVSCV

Compound: O=C1Nc2ccc(Cl)cc2[C@@](C#CC2CC2)(C(F)(F)F)O1 [efavirenz, (4S)-6-chloro-4-(2-cyclopropylethynyl)-4-(trifluoromethyl)-2,4-dihydro-1H-3,1-benzoxazin-2-one]
- inhibition of agonist responses (5-HT, TCB-2, α-Me-5HT) (5-HT2A receptor [1]; 30 μM antagonist): significant inhibition
- Schild plot slope (5-HT2A receptor [1]; (±)-DOI as agonist): 1.06 ± 0.054
- Schild plot slope (5-HT2A receptor [1]; LSD as agonist): 1.2 ± 0.16
- change in cAMP levels (untransfected HeLa cells): no significant changes in cAMP levels
- antagonism of 100 nM 5-HT calcium response (5-HT2A receptor [2]; cells pretreated 3 days with 30 μM 5-HT): 49%
- antagonism of 100 nM 5-HT calcium response (5-HT2A receptor [2]; cells pretreated 3 days with 30 μM efavirenz): 49%
- antagonism of 100 nM 5-HT calcium response (5-HT2A receptor [2]; cells pretreated 3 days with DMSO vehicle): 48%
- reduction of the 100 μM maximal 5-HT response (5-HT2A receptor [2]; 3 day exposure to 30 μM, vs 3 day vehicle): 81%
- interaction (radioligand displacement) (h5-HT1A): less pronounced or no detectable interaction
- mean concentration in CSF ([3]; across studies): approximately 44 nM
- CSF levels as % of plasma concentrations [3]: 0.52%
- bound to plasma proteins [4]: approximately 99.8%
- incidence of hallucinations ([5]; large clinical studies, 1008 patients): 1.2%
- frequency of hallucinations ([5]; three clinical studies, 114–197 patients each): 6–31%
- effect on serotonin reuptake [6]: blocks reuptake of serotonin
- novel open field locomotor activity [7]: dose-dependently depressed novel open field locomotor activity
- interaction (muscarinic receptors): did not have high affinity interactions
- Ki (5-HT2A receptor [8]; affinity (Ki), [3H]MSP competition): 4.4 µM and 4.37 µM
- pseudo Hill slope (5-HT2A receptor [8]; competition binding): −1.39 ± −0.18
- Ki (5-HT2C receptor): 1.7 ± 0.28 µM
- pseudo Hill slope (5-HT2C receptor; competition binding): −1.22 ± −0.18
- interaction (radioligand displacement) (h5-HT7): less pronounced or no detectable interaction
